Tests used:
[1] = tested on: male Sprague-Dawley rats; experiment: EEG/EMG/Tcore/LMA telemetry sleep study 1 (SB-334867 vs ZOL); format: in vivo, rat
Description: All rodent electroencephalograph (EEG) studies were performed at SRI International. Three groups of eight male Sprague-Dawley rats (300±25 g; Charles River, Wilmington, MA) were implanted with chronic recording devices (F40-EET, Data Sciences Inc., St Paul, MN) for continuous recordings of EEG, electromyograph (EMG), core body temperature (Tcore), and LMA via telemetry as previously described. Data recording and scoring were performed as previously reported (see also Supplemental Material and Methods). The EEG and EMG data were scored in 10 sec epochs for waking (W), rapid eye movement sleep (REM), and non-REM sleep (NR). Tcore and LMA (counts per minute) were analyzed as hourly means. Data from the EEG studies are reported in hourly means such that the hourly time ZT1 refers to the hour between time points ZT0 and ZT1.
For each of the three separate studies, a repeated measures counter-balanced design was employed in which each rat received five separate dosings. […] All dosings were administered ip in a volume of 2 ml/kg. A minimum of 3 d elapsed between doses. Dosing occurred during the middle of the rats’ normal active period at the start of ZT19 and was typically completed within 10 min. Animals were continuously recorded for 6 h prior to dosing and for 18 h following dosing.

[2] = biological target: T1, PACAP (h) (PAC1) (Homo sapiens, UniProt P41586); experiment: CEREP radioligand binding; settings: % of control specific binding
T1 construct: purchased CEREP
Description: (§1) SB-334867 was evaluated in a selectivity screen performed at CEREP (Paris, France). The screen consisted of binding assays on a panel of 79 target receptors. The specific binding (SB) of a radioligand to each target receptor was defined as the difference between the total binding and the nonspecific binding determined in the presence of a cold competitor in excess. […] Details on the CEREP screen are available from www.cerep.fr.

[3] = tested on: Na+ channel (site 2); experiment: CEREP radioligand binding; settings: % of control specific binding
Description: as §1

[4] = tested on: P2Y; experiment: CEREP radioligand binding
Description: as §1

[5] = tested on: PCP; experiment: CEREP radioligand binding; settings: % of control specific binding
Description: as §1

T1 sequence (P41586 21-468): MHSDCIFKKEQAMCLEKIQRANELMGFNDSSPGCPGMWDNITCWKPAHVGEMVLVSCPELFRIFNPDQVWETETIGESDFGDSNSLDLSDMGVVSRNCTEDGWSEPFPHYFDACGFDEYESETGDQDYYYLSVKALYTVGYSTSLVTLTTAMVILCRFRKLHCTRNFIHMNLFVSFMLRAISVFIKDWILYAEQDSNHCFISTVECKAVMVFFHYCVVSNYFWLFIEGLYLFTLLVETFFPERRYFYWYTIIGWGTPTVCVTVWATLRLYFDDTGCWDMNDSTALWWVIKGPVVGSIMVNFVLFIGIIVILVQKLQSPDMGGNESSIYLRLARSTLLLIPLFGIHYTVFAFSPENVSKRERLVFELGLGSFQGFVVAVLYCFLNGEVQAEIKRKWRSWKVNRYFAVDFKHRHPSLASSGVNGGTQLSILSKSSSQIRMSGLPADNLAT

Cc1nc2ccc(NC(=O)Nc3ccnc4cccnc34)cc2o1.Cl [SB-334867, 1-(2-methylbenzoxazol-6-yl)-3-[1], [5]naphthyridin-4-yl-urea hydrochloride]
W bout duration ([1]; ZT21, 10 mg/kg ip): 2.72 ± 0.50 | NR bout duration ([1]; ZT21, 30 mg/kg ip): 1.27 ± 0.16 | Number of NR bouts ([1]; ZT21, 30 mg/kg ip): 16.75 ± 2.30 | Number of REM bouts ([1]; ZT21, 30 mg/kg ip): 5.63 ± 1.10 | Number of W bouts ([1]; ZT21, 30 mg/kg ip): 13.00 ± 1.90 | REM bout duration ([1]; ZT21, 30 mg/kg ip): 1.04 ± 0.11 | W bout duration ([1]; ZT21, 30 mg/kg ip): 2.98 ± 0.68 | NR bout duration (in words) ([1]; ZT21 at 30 mg/kg and ZT24 at 3 mg/kg): increased NR bout duration | NR bout duration ([1]; ZT22, 3 mg/kg ip): 0.82 ± 0.13 | Number of NR bouts ([1]; ZT22, 3 mg/kg ip): 12.75 ± 2.22 | Number of REM bouts ([1]; ZT22, 3 mg/kg ip): 2.75 ± 1.10 | Number of W bouts ([1]; ZT22, 3 mg/kg ip): 13.38 ± 2.85 | REM bout duration ([1]; ZT22, 3 mg/kg ip): 1.10 ± 0.27 | W bout duration ([1]; ZT22, 3 mg/kg ip): 6.85 ± 3.36 | NR bout duration ([1]; ZT22, 10 mg/kg ip): 0.86 ± 0.10 | Number of NR bouts ([1]; ZT22, 10 mg/kg ip): 17.13 ± 2.47 | Number of REM bouts ([1]; ZT22, 10 mg/kg ip): 3.13 ± 0.67 | Number of W bouts ([1]; ZT22, 10 mg/kg ip): 14.13 ± 1.81 | REM bout duration ([1]; ZT22, 10 mg/kg ip): 1.16 ± 0.25 | W bout duration ([1]; ZT22, 10 mg/kg ip): 3.15 ± 0.53 | NR bout duration ([1]; ZT22, 30 mg/kg ip): 1.19 ± 0.23 | Number of NR bouts ([1]; ZT22, 30 mg/kg ip): 13.13 ± 2.17 | Number of REM bouts ([1]; ZT22, 30 mg/kg ip): 3.38 ± 1.03 | Number of W bouts ([1]; ZT22, 30 mg/kg ip): 16.00 ± 2.00 | REM bout duration ([1]; ZT22, 30 mg/kg ip): 1.25 ± 0.22 | W bout duration ([1]; ZT22, 30 mg/kg ip): 2.75 ± 0.54 | NR bout duration ([1]; ZT23, 3 mg/kg ip): 0.77 ± 0.08 | Number of NR bouts ([1]; ZT23, 3 mg/kg ip): 10.50 ± 2.01 | Number of REM bouts ([1]; ZT23, 3 mg/kg ip): 1.00 ± 0.42 | Number of W bouts ([1]; ZT23, 3 mg/kg ip): 9.00 ± 1.66 | REM bout duration ([1]; ZT23, 3 mg/kg ip): 0.63 ± 0.29 | W bout duration ([1]; ZT23, 3 mg/kg ip): 6.72 ± 1.58 | NR bout duration ([1]; ZT23, 10 mg/kg ip): 0.77 ± 0.13 | Number of NR bouts ([1]; ZT23, 10 mg/kg ip): 9.88 ± 1.88 | Number of REM bouts ([1]; ZT23, 10 mg/kg ip): 1.50 ± 0.63 | Number of W bouts ([1]; ZT23, 10 mg/kg ip): 8.88 ± 1.59 | REM bout duration ([1]; ZT23, 10 mg/kg ip): 1.12 ± 0.34 | W bout duration ([1]; ZT23, 10 mg/kg ip): 11.56 ± 6.94 | NR bout duration ([1]; ZT23, 30 mg/kg ip): 0.80 ± 0.14 | Number of NR bouts ([1]; ZT23, 30 mg/kg ip): 8.88 ± 2.17 | Number of REM bouts ([1]; ZT23, 30 mg/kg ip): 2.75 ± 1.08 | Number of W bouts ([1]; ZT23, 30 mg/kg ip): 8.38 ± 2.00 | REM bout duration ([1]; ZT23, 30 mg/kg ip): 0.75 ± 0.17 | W bout duration ([1]; ZT23, 30 mg/kg ip): 12.52 ± 6.85 | NR bout duration ([1]; ZT24, 3 mg/kg ip): 1.40 ± 0.24 | Number of NR bouts ([1]; ZT24, 3 mg/kg ip): 7.63 ± 2.02 | Number of REM bouts ([1]; ZT24, 3 mg/kg ip): 1.00 ± 0.42 | Number of W bouts ([1]; ZT24, 3 mg/kg ip): 7.00 ± 1.60 | REM bout duration ([1]; ZT24, 3 mg/kg ip): 1.13 ± 0.39 | W bout duration ([1]; ZT24, 3 mg/kg ip): 14.70 ± 7.18 | NR bout duration ([1]; ZT24, 10 mg/kg ip): 0.99 ± 0.18 | Number of NR bouts ([1]; ZT24, 10 mg/kg ip): 5.38 ± 1.45 | Number of REM bouts ([1]; ZT24, 10 mg/kg ip): 0.63 ± 0.26 | Number of W bouts ([1]; ZT24, 10 mg/kg ip): 5.25 ± 1.22 | REM bout duration ([1]; ZT24, 10 mg/kg ip): 0.48 ± 0.16^+ | W bout duration ([1]; ZT24, 10 mg/kg ip): 16.01 ± 6.44 | NR bout duration ([1]; ZT24, 30 mg/kg ip): 1.05 ± 0.12 | Number of NR bouts ([1]; ZT24, 30 mg/kg ip): 10.88 ± 1.90 | Number of REM bouts ([1]; ZT24, 30 mg/kg ip): 2.13 ± 0.55 | Number of W bouts ([1]; ZT24, 30 mg/kg ip): 8.63 ±1.29 | REM bout duration ([1]; ZT24, 30 mg/kg ip): 0.81 ± 0.12 | W bout duration ([1]; ZT24, 30 mg/kg ip): 5.39 ± 6.44 | Tcore (in words) ([1]; high concentration tested, across 6 h): decreased Tcore | % Control (10 µM) Mean SB [2]: 107.7% | % Control (10 µM) Mean SB [3]: 62.8% | displacement of specific binding ([4]; 10 µM, P2Y (purinergic 2Y)): 64% | % Control (10 µM) Mean SB ([4]; % of control specific binding): 36.4% | % Control (10 µM) Mean SB [5]: 91.8%

Reference: article PMC3388080 (PLoS ONE, 2012)
